Test results published in patent US20100179093A1, “Neoropeptide-2-Receptor (Y-2R) Agonists” (priority 2008, published 2010).
Like-named read-outs stand apart in the source and are kept apart here.

Tests used:
Assay type in all cases: cell-based
[1] = target: T1, Y1R (Homo sapiens, UniProt P25929); experiment: CaFlux Assay (FLIPR), Y1R
T1 sequence (P25929 1-384): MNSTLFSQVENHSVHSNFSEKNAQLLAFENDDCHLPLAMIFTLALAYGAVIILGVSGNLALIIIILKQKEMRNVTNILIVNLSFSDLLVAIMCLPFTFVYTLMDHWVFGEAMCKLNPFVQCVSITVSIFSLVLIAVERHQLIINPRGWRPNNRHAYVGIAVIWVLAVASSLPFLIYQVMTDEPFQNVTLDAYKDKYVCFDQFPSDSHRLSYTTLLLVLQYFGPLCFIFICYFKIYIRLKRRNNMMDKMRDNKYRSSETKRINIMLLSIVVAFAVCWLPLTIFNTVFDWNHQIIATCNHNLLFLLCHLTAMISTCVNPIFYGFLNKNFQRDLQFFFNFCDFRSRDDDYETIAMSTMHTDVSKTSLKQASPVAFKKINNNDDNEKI

[2] = target: Y4R (Homo sapiens, UniProt P50391); experiment: CaFlux Assay (FLIPR), Y4R
Sequence of Y4R (P50391 whole entry): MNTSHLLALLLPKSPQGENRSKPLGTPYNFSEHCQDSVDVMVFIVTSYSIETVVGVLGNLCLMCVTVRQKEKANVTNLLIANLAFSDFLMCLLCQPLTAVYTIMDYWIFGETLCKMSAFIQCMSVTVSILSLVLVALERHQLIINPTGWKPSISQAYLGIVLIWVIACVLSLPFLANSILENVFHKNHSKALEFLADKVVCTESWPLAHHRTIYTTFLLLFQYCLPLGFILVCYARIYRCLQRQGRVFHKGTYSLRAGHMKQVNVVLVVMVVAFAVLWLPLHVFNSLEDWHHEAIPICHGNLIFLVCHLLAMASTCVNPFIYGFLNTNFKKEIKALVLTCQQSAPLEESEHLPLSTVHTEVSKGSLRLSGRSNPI

[3] = target: T2, Y5R (Homo sapiens, UniProt Q15761); experiment: CaFlux Assay (FLIPR), Y5R; conditions: for Emax: read-out: Y5R FLIPR, percentage in parentheses under the EC50;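 on Emax: percent of the maximal response of the positive control agonist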
T2 sequence (Q15761 1-445): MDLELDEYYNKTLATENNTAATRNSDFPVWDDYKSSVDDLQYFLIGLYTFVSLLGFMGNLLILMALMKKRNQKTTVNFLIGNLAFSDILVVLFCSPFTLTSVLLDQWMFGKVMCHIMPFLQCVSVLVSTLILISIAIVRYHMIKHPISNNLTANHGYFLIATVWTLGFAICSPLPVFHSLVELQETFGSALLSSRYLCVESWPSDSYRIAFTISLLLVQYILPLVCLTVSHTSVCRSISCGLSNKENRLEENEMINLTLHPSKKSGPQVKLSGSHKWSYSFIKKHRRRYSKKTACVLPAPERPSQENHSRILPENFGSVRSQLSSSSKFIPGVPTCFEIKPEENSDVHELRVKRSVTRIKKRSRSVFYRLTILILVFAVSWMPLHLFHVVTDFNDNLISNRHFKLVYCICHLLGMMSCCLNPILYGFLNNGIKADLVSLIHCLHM

[4] = target: T3, hNPY2R (Homo sapiens, UniProt P49146); experiment: cAMP Agonist Assay, HEK293/hNPY2R cells; set-up: expressed in transfected cells; host or cells: HEK293/hNPY2R (G418 selection)
T3 sequence (P49146 1-381): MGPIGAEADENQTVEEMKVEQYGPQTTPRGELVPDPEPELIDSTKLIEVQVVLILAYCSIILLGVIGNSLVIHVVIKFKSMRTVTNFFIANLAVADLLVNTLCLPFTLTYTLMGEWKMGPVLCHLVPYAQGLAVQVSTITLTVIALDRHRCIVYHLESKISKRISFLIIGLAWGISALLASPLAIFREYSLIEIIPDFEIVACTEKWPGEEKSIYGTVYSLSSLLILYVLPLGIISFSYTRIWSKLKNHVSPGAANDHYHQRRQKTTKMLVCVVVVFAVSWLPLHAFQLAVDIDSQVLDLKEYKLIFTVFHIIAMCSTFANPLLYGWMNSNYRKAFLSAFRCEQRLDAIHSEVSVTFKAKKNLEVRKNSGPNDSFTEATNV

[5] = target: T3, hNPY2R; experiment: CaFlux Assay (FLIPR), Y2R; set-up: expressed in transfected cells; host or cells: HEK-293 stably expressing G protein chimera Gaqi9
Procedure: Hek-293 cells were stably transfected with the G protein chimera Gaqi9 and the hygromycin-B resistance gene were further transfected with the human NPY2 receptor and G418 antibiotic selection. Following selection in both hygromycin-B and G418, individual clones were assayed for their response to PYY. The transfected cells were cultured in DMEM medium supplemented with 10% fetal bovine serum, 50 μg/mL hygromycin-B 2 mM glutamine, 100 U/mL penicillin, 100 μg/mL streptomycin and 250 μg/mL G418. Cells are harvested with trypsin-EDTA and counted using ViaCount reagent. The cell suspension volume is adjusted to 4.8×10^5 cells/mL with complete growth media. Aliquots of 25 μL are dispensed into 384 well Poly-D Lysine coated black/clear microplates (Falcon) and the microplates were placed in a 37° C. CO2 incubator overnight. Loading Buffer (Calcium-3 Assay Kit, Molecular Devices) was prepared by dissolving the contents of one vial (Express Kit) into 1000 mL Hank's Balanced Salt Solution containing 20 mM HEPES and 5 mM probenecid. Aliquots of 25 μL of diluted dye were dispensed into the cell plates and the plates are then incubated for 1 hour at 37° C. During the incubation, test compounds were prepared at 3.5× the desired concentration in HBSS (20 mM HEPES)/0.05% BSA/1% DMSO and transferred to a 384 well plate for use on FLIPR. After incubation, both the cell and compound plates were brought to the FLIPR and 20 μL of the diluted compounds were transferred to the cell plates by the FLIPR. During the assay, fluorescence readings were taken simultaneously from all 384 wells of the cell plate every 1.5 seconds. Five readings were taken to establish a stable baseline, and then 20 μL of sample was rapidly (30 μL/sec) and simultaneously added to each well of the cell plate. The fluorescence was continuously monitored before, during and after sample addition for a total elapsed time of 100 seconds. Responses (increase in peak fluorescence) in each well following addition were determined. The initial fluorescence reading from each well, prior to ligand stimulation, was used as a zero baseline value for the data from that well. The responses are expressed as % of maximal response of the positive control.

| Structure (SMILES) | EC50 [1] [nM] | EC50 [2] [nM] | EC50 [3] [nM] | Emax [3] [%] | EC50 [4] [nM] | EC50 [5] [nM] | EC50 ([1]; FLIPR, read-out: Y1R EC50 (nM) FLIPR) [nM] | EC50 ([2]; FLIPR, read-out: Y4R EC50 (nM) FLIPR) [nM] | EC50 ([3]; FLIPR, read-out: Y5R EC50 (nM) FLIPR) [nM] | EC50 ([4]; HEK293/hNPY2R, Forskolin 5 μM, read-out: Y2R EC50 (nM) cAMP) [nM] | EC50 ([5]; FLIPR calcium flux, Hek-293 cells with Gaqi9 and human NPY2 receptor, read-out: Y2R EC50 (nM) FLIRR) [nM] |
| --- | --- | --- | --- | --- | --- | --- | --- | --- | --- | --- | --- |
| CCCCCCCCCCCCCCCC(=O)NCCOCCNC(=O)CCC(=O)NCCCC[C@H](NC(=O)[C@@H](N)[C@@H](C)CC)C(=O)N1CCN(c2ccc3ncn(CC(=O)N[C@@H](CCCNC(=N)N)C(=O)N[C@@H](Cc4c[nH]cn4)C(=O)N[C@@H](Cc4ccc(O)cc4)C(=O)N[C@@H](CC(C)C)C(=O)N[C@@H](CC(N)=O)C(=O)N[C@@H](Cc4c[nH]c5ccccc45)C(=O)N[C@H](C(=O)N[C@H](C(=O)N[C@@H](CCCNC(=N)N)C(=O)N[C@@H](CCC(N)=O)C(=O)N(C)[C@@H](CCCNC(=N)N)C(=O)N[C@@H](Cc4ccc(O)cc4)C(N)=O)[C@@H](C)O)C(C)C)c(=O)c3c2)CC1 [Example 38] | > 5000 | > 5000 | 644 | 83 | 0.17 | 0.003 | – | – | – | – | – |
| CCCCCCCCCCCCCCCC(=O)NCCC(=O)NCCCC[C@H](NC(=O)[C@@H](N)[C@@H](C)CC)C(=O)N1CCN(c2ccc3ncn(CC(=O)N[C@@H](CCCNC(=N)N)C(=O)N[C@@H](Cc4c[nH]cn4)C(=O)N[C@@H](Cc4ccc(O)cc4)C(=O)N[C@@H](CC(C)C)C(=O)N[C@@H](CC(N)=O)C(=O)N[C@@H](Cc4c[nH]c5ccccc45)C(=O)N[C@H](C(=O)N[C@H](C(=O)N[C@@H](CCCNC(=N)N)C(=O)N[C@@H](CCC(N)=O)C(=O)N(C)[C@@H](CCCNC(=N)N)C(=O)N[C@@H](Cc4ccc(O)cc4)C(N)=O)[C@@H](C)O)C(C)C)c(=O)c3c2)CC1 [Example 20] | > 5000 | > 5000 | 1880 | – | 0.26 | 0.015 | – | – | – | – | – |
| CCCCCCCCCCCCCCCC(=O)NCCCCCC(=O)NCCCC[C@H](NC(=O)[C@@H](N)[C@@H](C)CC)C(=O)N1CCN(c2ccc3ncn(CC(=O)N[C@@H](CCCNC(=N)N)C(=O)N[C@@H](Cc4c[nH]cn4)C(=O)N[C@@H](Cc4ccc(O)cc4)C(=O)N[C@@H](CC(C)C)C(=O)N[C@@H](CC(N)=O)C(=O)N[C@@H](Cc4c[nH]c5ccccc45)C(=O)N[C@H](C(=O)N[C@H](C(=O)N[C@@H](CCCNC(=N)N)C(=O)N[C@@H](CCC(N)=O)C(=O)N[C@@H](CCCNC(=N)N)C(=O)N[C@@H](Cc4ccc(O)cc4)C(N)=O)[C@@H](C)O)C(C)C)c(=O)c3c2)CC1 [Example 19] | > 5000 | > 5000 | 45 | – | 0.15 | 0.004 | – | – | – | – | – |
| CCCCCCCCCCCCCCCC(=O)NCCOCCOCCNC(=O)CCC(=O)NCCCC[C@H](NC(=O)[C@@H](N)[C@@H](C)CC)C(=O)N1CCN(c2ccc3ncn(CC(=O)N[C@@H](CCCNC(=N)N)C(=O)N[C@@H](Cc4c[nH]cn4)C(=O)N[C@@H](Cc4ccc(O)cc4)C(=O)N[C@@H](CC(C)C)C(=O)N[C@@H](CC(N)=O)C(=O)N[C@@H](Cc4c[nH]c5ccccc45)C(=O)N[C@H](C(=O)N[C@H](C(=O)N[C@@H](CCCNC(=N)N)C(=O)N[C@@H](CCC(N)=O)C(=O)N(C)[C@@H](CCCNC(=N)N)C(=O)N[C@@H](Cc4ccc(O)cc4)C(N)=O)[C@@H](C)O)C(C)C)c(=O)c3c2)CC1 [Example 36] | > 5000 | > 5000 | 481 | 73 | 0.15 | 0.138 | – | – | – | – | – |
| CCCCCCCCCCCCCCCC(=O)N[C@@H](CCC(=O)N[C@@H](CCC(=O)NCCCC[C@H](NC(=O)[C@@H](N)[C@@H](C)CC)C(=O)N1CCN(c2ccc3ncn(CC(=O)N[C@@H](CCCNC(=N)N)C(=O)N[C@@H](Cc4c[nH]cn4)C(=O)N[C@@H](Cc4ccc(O)cc4)C(=O)N[C@@H](CC(C)C)C(=O)N[C@@H](CC(N)=O)C(=O)N[C@@H](Cc4c[nH]c5ccccc45)C(=O)N[C@H](C(=O)N[C@H](C(=O)N[C@@H](CCCNC(=N)N)C(=O)N[C@@H](CCC(N)=O)C(=O)N(C)[C@@H](CCCNC(=N)N)C(=O)N[C@@H](Cc4ccc(O)cc4)C(N)=O)[C@@H](C)O)C(C)C)c(=O)c3c2)CC1)C(=O)O)C(=O)O [Example 25] | > 5000 | > 5000 | 443 | 70 | 0.22 | 0.08 | – | – | – | – | – |
| CCCCCCCCCCCCCCCC(=O)N[C@@H](CCC(=O)O)C(=O)N[C@@H](CCC(=O)O)C(=O)NCCCC[C@H](NC(=O)[C@@H](N)[C@@H](C)CC)C(=O)N1CCN(c2ccc3ncn(CC(=O)N[C@@H](CCCNC(=N)N)C(=O)N[C@@H](Cc4c[nH]cn4)C(=O)N[C@@H](Cc4ccc(O)cc4)C(=O)N[C@@H](CC(C)C)C(=O)N[C@@H](CC(N)=O)C(=O)N[C@@H](Cc4c[nH]c5ccccc45)C(=O)N[C@H](C(=O)N[C@H](C(=O)N[C@@H](CCCNC(=N)N)C(=O)N[C@@H](CCC(N)=O)C(=O)N(C)[C@@H](CCCNC(=N)N)C(=O)N[C@@H](Cc4ccc(O)cc4)C(N)=O)[C@@H](C)O)C(C)C)c(=O)c3c2)CC1 [Example 23] | – | – | – | 70 | – | – | > 5000 | > 5000 | 459 | 0.29 | 0.033 |
| CCCCCCCCCCCC(=O)NCCCC[C@H](NC(=O)[C@@H](NC(C)=O)[C@@H](C)CC)C(=O)N1CCN(c2ccc3ncn(CC(=O)N[C@@H](CCCNC(=N)N)C(=O)N[C@@H](Cc4c[nH]cn4)C(=O)N[C@@H](Cc4ccc(O)cc4)C(=O)N[C@@H](CC(C)C)C(=O)N[C@@H](CC(N)=O)C(=O)N[C@@H](Cc4c[nH]c5ccccc45)C(=O)N[C@H](C(=O)N[C@H](C(=O)N[C@@H](CCCNC(=N)N)C(=O)N[C@@H](CCC(N)=O)C(=O)N(C)[C@@H](CCCNC(=N)N)C(=O)N[C@@H](Cc4ccc(O)cc4)C(N)=O)[C@@H](C)O)C(C)C)c(=O)c3c2)CC1 [Example 7] | 6430 | 14500 | 12800 | – | 5.4 | 4.7 | – | – | – | – | – |
| CCCCCCCCCCCC(=O)N[C@@H](CCC(=O)O)C(=O)NCCCC[C@H](NC(=O)[C@@H](N)[C@@H](C)CC)C(=O)N1CCN(c2ccc3ncn(CC(=O)N[C@@H](CCCNC(=N)N)C(=O)N[C@@H](Cc4c[nH]cn4)C(=O)N[C@@H](Cc4ccc(O)cc4)C(=O)N[C@@H](CC(C)C)C(=O)N[C@@H](CC(N)=O)C(=O)N[C@@H](Cc4c[nH]c5ccccc45)C(=O)N[C@H](C(=O)N[C@H](C(=O)N[C@@H](CCCNC(=N)N)C(=O)N[C@@H](CCC(N)=O)C(=O)N(C)[C@@H](CCCNC(=N)N)C(=O)N[C@@H](Cc4ccc(O)cc4)C(N)=O)[C@@H](C)O)C(C)C)c(=O)c3c2)CC1 [Example 11] | > 5000 | 2430 | 3550 | – | 3.6 | 0.026 | – | – | – | – | – |
| CCCCCCCCCCCC(=O)NCCCCCC(=O)NCCCC[C@H](NC(=O)[C@@H](N)[C@@H](C)CC)C(=O)N1CCN(c2ccc3ncn(CC(=O)N[C@@H](CCCNC(=N)N)C(=O)N[C@@H](Cc4c[nH]cn4)C(=O)N[C@@H](Cc4ccc(O)cc4)C(=O)N[C@@H](CC(C)C)C(=O)N[C@@H](CC(N)=O)C(=O)N[C@@H](Cc4c[nH]c5ccccc45)C(=O)N[C@H](C(=O)N[C@H](C(=O)N[C@@H](CCCNC(=N)N)C(=O)N[C@@H](CCC(N)=O)C(=O)N(C)[C@@H](CCCNC(=N)N)C(=O)N[C@@H](Cc4ccc(O)cc4)C(N)=O)[C@@H](C)O)C(C)C)c(=O)c3c2)CC1 [Example 9] | > 5000 | 2450 | 3790 | – | 3.5 | 0.031 | – | – | – | – | – |
